The first assay has as its target eIF4E (Homo sapiens (Human), UniProt P06730). Nature of the assay: TR-FRET assay for competitive binding of cap analogs to eIF4E. The conditions noted are these: N7-alkylated GDP derivatives; single measurement unless noted (a = average over 2 measurements); read-out: AC50/μM. An excerpt:
His tagged eIF4E protein was purchased from Fitzgerald Industries International (80R-125; Acton, Mass.) and tRNA was purchased from SIGMA (R5636; St. Louis, Mo.). A biotinylated 20 nucleotide RNA oligo (5′Phos/rGrGrA rCrCrC rCrUrC rUrCrC rCrUrC rCrCrC rCrC biotin-3′) was purchased from Integrated DNA Technologies (Coralville, Iowa). Europium labelled anti his antibody was purchased from Perkin Elmer (ADOI 10; Waltham, Mass.) and streptavidin conjugated alexa fluor 647 was purchased from Life Technologies (S32357; Grand Island, N.Y.).
The TR-FRET assay was performed in an assay buffer of PBS (pH 7.4), 0.02% Tween, and 0.1% BSA using four separate addition steps. Initially, 5 μl of His-eIF4E (10 nM) and tRNA (0.1 mg/ml) were added into a black walled 384 well small volume plate. Next, 1 al/well of freshly diluted compound was added using the Beckman Coulter Biomek FX liquid dispenser with a final DMSO concentration of 1%. The compound and eIF4E were allowed to bind for 15 minutes at room temperature. The third addition consisted of adding 4 μl of chemically capped 7mGDP imidazole mRNA-biotin (10 nM) into every well, with the exception of one column containing only buffer to use as a background control. The binding reaction was incubated for one hour at room temperature. Finally, 5 al of the europium-labeled anti-His antibody (10 nM) and streptavidin conjugated alexa fluor 647 (10 nM) TR-FRET detection reagents were added to each well and allowed to incubate at room temperature protected from light for 1 h. The plates were read on the Envision plate reader (Perkin-Elmer) to measure signals from both the Alexa fluor (665 nm) and the europium (615 nm). A ratio of the alexa fluor and europium fluorescence as a function of cap analog concentration was calculated for data analysis and data were fit to a standard EC50 inhibition curve in Graph Pad.
eIF4E, sequence (P06730 whole entry): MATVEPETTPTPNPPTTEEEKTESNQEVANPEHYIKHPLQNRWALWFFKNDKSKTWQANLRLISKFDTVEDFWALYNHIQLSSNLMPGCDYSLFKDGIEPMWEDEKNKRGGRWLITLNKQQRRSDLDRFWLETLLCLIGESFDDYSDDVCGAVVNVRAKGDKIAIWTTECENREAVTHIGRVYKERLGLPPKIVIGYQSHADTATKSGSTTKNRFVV
Consider `Nc1nc([O-])c2c(n1)n([C@@H]1O[C@H](COP(=O)(O)OP(=O)(O)O)[C@@H](O)[C@H]1O)c[n+]2C(c1ccccc1)c1ccccc1` [Example 16], for which the AC50 was determined as 47.1 µM.

Still in this assay, the particulars now being: N^7-alkylated GMP derivatives; competition with capped 7mGDP mRNA-biotin; single measurement unless footnoted as average; read-out: AC50.
As for `CCc1ccc2nonc2c1` [Example 70], the AC50 was 23.7 µM.

Turning to `CCc1ccc2c(cnn2C)c1` [Example 74], the AC50 is more than 100 µM.

Regarding `CCc1nc2ccccc2n1C` [Example 71], the AC50 was more than 100 µM.

For `CCc1ncc(-c2ccc(F)cc2)o1` [Example 64], the AC50 is more than 100 µM.

In the case of `CCc1ccc(-c2noc(C)n2)cc1` [Example 63], the AC50 is more than 100 µM.

As for `CCc1cccc2c1cnn2C` [Example 72], the AC50 is more than 100 µM.

Regarding `CCc1nc2ccccc2s1` [Example 68], the AC50 was 52.9 µM.

With `CCc1ccc2cnn(C)c2c1` [Example 73], the AC50 was more than 100 µM.

For the compound `CCc1ccc(-c2ccccc2OC)cc1` [Example 62], the AC50 is more than 100 µM.

In the case of `CCc1cc2ccccc2s1` [Example 69], the AC50 was 63.2 µM.

For the compound `CCc1ccc(-c2ccccc2)cc1` [Example 65], the AC50 amounted to 29 µM.

Turning to `CCc1ccc(-c2ccsc2)cc1` [Example 67], the AC50 turned out to be 2.69 µM.

In the case of `CCc1ccc(-c2nc(C)no2)cc1` [Example 61], the AC50 is 16.7 µM.

Consider `CCc1ccc(-c2ccc(C(C)=O)cc2)cc1` [Example 60], for which the AC50 is more than 100 µM.

As for `CCc1ccc(-c2cccs2)nc1` [Example 66], the AC50 was determined as 5.91 µM.
